The results in this text go back to a melting point compilation (Tetko et al.; mined from patent text by program, amines drawn as free bases though some values may be those of a salt).

For orientation: melting point means the temperature of the solid-liquid transition. In the case of `ON=C1c2ccccc2-c2c1c(-n1ccnc1)nc1ccc(Br)cc21`, the melting point was in the range of 268 to 271 °C. Regarding `COc1cc(OC)c2c(=O)c3c(Cl)ccc([N+](=O)[O-])c3[nH]c2c1`, the melting point fell in the range of 291 to 294 °C. `COC(=O)C(=CNc1cc(-c2ccccc2Cl)sc1C(=O)O)SC` yielded a melting point of 80 to 85 °C. The molecule `COC(=O)C(=O)Nc1cccc2c1C(=O)N(C1CCC(=O)NC1=O)C2=O` (stereo not drawn) gave a melting point of 247 to 249 °C. With `CCOC(=O)c1c(C)oc2cc(N(C(C)=O)S(C)(=O)=O)c(Oc3ccccc3)cc2c1=O` the figure was 166 to 168 °C. In turn, `CC(C)(C)OC(=O)NCCCCC(NC(=O)OCc1ccccc1)C(N)=O` (stereo not drawn) yielded a melting point of 140 to 142 °C. Consider `COC(=O)CCc1cc(S(C)(=O)=O)cc(-c2nc(=O)c3ccc(Cl)cc3s2)n1`, for which the melting point is 203 to 204 °C. Molecule `COc1c(O)c(C=O)cc2ccoc12` came in with a melting point of 60 to 62 °C. For `Cc1cc(F)ccc1C(=C(C=O)c1nnnn1C)c1ccc(F)cc1C`, the melting point was 135 to 136 °C. `CCOC(=O)c1nccn1C1Cc2ccc(Cl)c(Cl)c2C1=O` (stereo not drawn): the melting point amounted to 90 °C. In the case of `CC(C)CCn1cc(-c2cnc3c(c2)N(Cc2c(F)ccc(F)c2Cl)CCN3)cn1`, the melting point turned out to be 134 °C. For `COc1cc(C(=O)N2Cc3ccc(C(=O)NCc4ccc5c(c4)OCCO5)n3Cc3ccccc32)ccc1-c1ccccc1C`, the melting point lay in the range of 153 to 155 °C. The value for `Cc1oc(-c2ccccc2)nc1COc1ccccc1CO` was 155 to 156 °C; that for `Cc1cc2c(-c3ccccc3Cl)c(N)c(=O)n(C)c2cc1C` was 242 to 243 °C; that for `CCCCN1CC(=O)N(c2cc(Cl)ccc2C)C1=S` was 102 to 103 °C.

Regarding `CC(C)CNc1nc(-c2ccccc2)cn2ccnc12`, the melting point was 81 °C. In the case of `COc1ccc(N2CCN(c3ccc(-n4cnn(C(C)C)c4=O)cc3)CC2)cc1`, the melting point came to 210 °C.

The molecule `c1ccc2c(OCC3CO3)c(OCC3CO3)ccc2c1` (stereo not drawn) displayed a melting point of 131 to 133 °C. Regarding `CCCCCCCCCCCCCCCC(=O)NC(CCCCCCCCCCCCCCC)CC(=O)NCCC(=O)NC(Cc1ccccc1)C(=O)O` (stereo not drawn), the melting point is 169 to 174 °C. The value for `CCCNc1ccc(C#CCCN2CC=C(c3ccccc3)CC2)nc1` was 138 to 139 °C; that for `COc1cc(NC(=O)Nc2cccc3c2C2CC(OC)CCN2C3=O)nc2ccccc12` (stereo not drawn) was over 260 °C.

The molecule `Cc1nc(C(=O)O)cnc1Cl` showed a melting point of 116 to 117 °C. As for `COC(=O)c1cc(F)c(O)nc1O`, the melting point fell in the range of 208 to 213 °C.

For `Cc1c(NC(=O)c2ccc(OC[C@@H]3CCCO3)cc2)ccc2cc(CNC3CCOCC3)cnc12`, the melting point was 158 to 159 °C. `CCCC(=O)c1cc(C(=O)O)c2cc(Cc3ccc(F)cc3)cnc2c1O` came in with a melting point of 232 to 234 °C. With `C[C@@H](O)C(=O)NC[C@H]1CCc2ccc(S(=O)(=O)c3ccccc3)cc2O1` the figure was 130 to 132 °C; with `CN1C(=O)CC(c2ccc(CO)cc2)C1C(O)c1ccc(-c2ccccc2)s1` (stereo not drawn), 205 °C. With `O=C(O)Cc1ccc2c(c1)C(=O)c1cccc(Cl)c1CO2` the figure was 173 to 176 °C.

`CN(C)CCOC(=O)C(=O)c1ccc(OCCOc2ccc3ccccc3c2)s1` returned a melting point of 76 to 77 °C. Molecule `O=C1C2CC=C(SC3=CCC4C(=O)N(c5ccccc5)C(=O)C4C3)CC2C(=O)N1c1ccccc1` (stereo not drawn) displayed a melting point of 212 to 217 °C.

In turn, `CC(=O)c1c(C)[nH]c(-c2ccccc2)c1N(C)C` displayed a melting point of 153 to 155 °C. The molecule `CC(C)CCNc1nc2ccccc2cc1[N+](=O)[O-]` came in with a melting point of 99 to 100 °C. For the molecule `CN(N=[N+](C)[O-])c1ccccc1`, the melting point lay in the range of 55 to 56 °C. Consider `N#Cc1ccc2ccn3cccc3c(=O)c2c1`, for which the melting point lay in the range of 213 to 217 °C. Molecule `CC(=O)Nc1c([N+](=O)[O-])cnn1-c1c(F)c(F)c(C(F)(F)F)c(F)c1F` returned a melting point of 136 to 138 °C.

`O=C(O)Cc1c(-c2ccc(Cl)cc2)nn(-c2ccccc2)c1-c1ccc(Cl)cc1` came in with a melting point of 204 to 206 °C. With `COc1nc2ccc(Cl)cc2c(-c2ccccc2Cl)c1C(=O)O` the figure was 188 to 190 °C; with `Nc1cc2nc(-c3ccccc3)nn2cc1F`, over 250 °C; with `COCOc1cc(CCC(=O)c2c(OC)cc(OC)c(CCC(C)C)c2O)ccc1OC`, 93.5 to 94.5 °C.

The molecule `Cc1ccc(S(=O)(=O)N2CCCC2c2ccccc2F)cc1` (racemic) gave a melting point of 143 °C. `COP(=O)(OC)[C@@H](O)[C@H](CC1CCCCC1)NC(=O)[C@H](CC(C)C)NC(=O)CCc1ccccc1` came in with a melting point of 157 °C. For the molecule `COc1cccc(CC(=O)O)c1OCCCc1cc(OC(C)C)nn1Cc1ccc(C(F)(F)F)cc1`, the melting point fell in the range of 116 to 117 °C. `O=C(O)c1cn(C2CC2)c2cc(N3CCC3)c(F)cc2c1=O` returned a melting point of 291 to 294 °C. `CNC(=O)c1ccc(-c2coc3ccc(-c4nnc(C)o4)cc23)cc1F` yielded a melting point of 183 to 184 °C. `CCOC(=O)N(O)Cc1cccc(Nc2ccccc2C(=O)OC)c1C` came in with a melting point of 101 to 103 °C.

With `CC(C)c1ccc2oc(C(O)COc3ccc(C(=O)O)cc3)cc2c1` (stereo not drawn), the melting point lay within 148 to 150 °C. For the molecule `CC(=O)N1CCN(c2c(N[C@@H](Cc3ccccc3)C(=O)O)c(=O)c2=O)CC1`, the melting point was 155 to 158 °C. `CC(C)(C)OC(=O)NCC1CN(c2cccc(Cl)n2)C1` showed a melting point of 124 to 126 °C. `CCCCNC(=O)C1CCNCC1` yielded a melting point of 75 to 79 °C.

Turning to `CC(C)CCCC(C)C1CCC2C3CC=C4CC(OCCC#CCCOC(c5ccccc5)(c5ccccc5)c5ccccc5)CCC4(C)C3CCC12C` (stereo not drawn), the melting point fell in the range of 112 to 113 °C. The value for `Cc1cc(O)c(S(=O)(=O)CCC(C)C)c(=O)o1` was 101 to 102 °C. `O=C(O)C(Cc1ccccc1)Nc1ncnc(-c2ccc(OCc3ccccc3)cc2)c1CO` (stereo not drawn) displayed a melting point of 114 to 117 °C. On to `CCSC1(SCC)CCC2C3CCC4=CC(=O)C=CC4(C)C3C(O)CC21C` (stereo not drawn), for which the melting point fell in the range of 163 to 165 °C. With `CCc1cc(C(=O)c2ccccc2Cl)c(-n2c(CNC(=O)c3ccc(Cl)c(Cl)c3)nnc2C(F)(F)F)s1` the figure was 75 to 80 °C. In the case of `CC(=O)NCC1CN(c2cc(F)c(N3CCN(C(=O)OC(C)(C)C)CC3)c(F)c2)C(=O)O1` (stereo not drawn), the melting point was in the range of 177 to 179 °C. As to `NC(=O)CCN1CCC(C2c3ccccc3C=Cc3ccccc32)CC1`, the melting point was in the range of 135 to 140 °C. `FC(F)(F)c1cc(Br)c2cccc(Cl)c2n1`: the melting point fell in the range of 62 to 64 °C. The molecule `O=C(c1ccccc1)c1ccc2nccnc2c1` registered a melting point of 120 °C. As to `CC(=N)Nc1ccccc1N1CCOCC1`, the melting point fell in the range of 140 to 141 °C.

`COC(=O)c1c(Cl)cc(Cl)cc1NC(=O)CSc1ccccc1Cl` registered a melting point of 98 to 99 °C. With `Cn1cnc(COc2nc3c(cc2-c2cccc(F)c2)nnn3-c2ccccc2F)n1` the figure was 202 to 205 °C; with `Cn1nc2c(N)nc3c(c2c1CCCCNC(=O)N1CCOCC1)CCCC3`, 95 °C; with `CON(O)C(=O)c1ccccc1[N+](=O)[O-]`, 104 °C. The molecule `COc1ccnc(CCC(=O)O)c1` displayed a melting point of 131 to 132 °C. `Cn1cc(C(=O)O)c(=O)c2cc(Cl)c(N3CCOCC3)cc21` gave a melting point of 334 °C. Molecule `Cc1cc(C)nc(NC(=O)Cc2cccn2C)c1` yielded a melting point of 85 °C. In turn, `O=C(O)c1cc2ccccc2cc1NC(=O)C(CS)Cc1ccccc1` (stereo not drawn) gave a melting point of 180 to 182 °C. Turning to `CCCC(=O)c1ccc(O)c(OC)c1`, the melting point lay within 40 to 41 °C. As for `CC1(C)OCC(CCn2cnc3c(N)nc(N)nc32)CO1`, the melting point was 202 to 204 °C. Molecule `Cc1ccc(S(=O)(=O)C(=[N+]=[N-])S(C)(=O)=O)cc1` returned a melting point of 108 to 109 °C. With `O=C(NCCO[N+](=O)[O-])c1cnc(C(F)(F)F)s1` the figure was 76 to 78 °C; with `CNC(=NCCCc1nc2cc(C3=NNC(=O)CC3C)ccc2[nH]1)NS(=O)(=O)c1ccccc1` (stereo not drawn), 258 to 260 °C; with `Cc1cc(O)c(SCC2CCCCC2)c(=O)o1`, 81.5 to 83 °C. As for `Cc1c(NC(=O)c2cc3c(s2)CCCC3)cccc1-c1cn(C)c(=O)c(Br)n1`, the melting point was 240 to 241 °C.

Take `CN1CCN(C(=O)c2nc(-c3ccccc3)nc3c2c2ccc(Cl)cc2n3C)CC1`: the melting point lay in the range of 236 to 238 °C. With `COC(=O)c1cc(C(=O)c2ccc(OC)c3ccccc23)cn1C`, the melting point was 162 °C. `Oc1ccc(-c2cc3cc(F)cc(F)c3o2)cc1` showed a melting point of 152 to 154 °C. In the case of `CCOC(=O)Cn1c(-c2ccc(F)cc2)nc2cccnc21`, the melting point lay in the range of 126 to 128 °C. The value for `CC(C)c1cccc(C(C)C)c1NC(=O)NCC1(c2cc(C(F)(F)F)cc(C(F)(F)F)c2)CCCC1` was 165 to 168 °C; that for `O=C(NC1CC1)c1cccc(-c2ccc3c(c2)C(Oc2ccc(Cl)cc2Cl)CC3)c1` (stereo not drawn) was 179 to 180 °C. As to `Cc1nc2c(N[C@@H]3c4ccccc4C[C@H]3O)cc(C(=O)N(C)C)cc2n1C` (relative stereo), the melting point lay in the range of 219 to 221 °C. For `O=C(O)CCc1ccc(C(=O)c2c(-c3ccc(O)cc3)sc3cc(O)ccc23)cc1`, the melting point is 244 to 248 °C.

Take `CC(C)C[C@@H](C(=O)NCCCC(c1ccc(F)cc1)c1ccc(F)cc1)N1CCCCC1`: the melting point lay in the range of 52 to 70 °C. As to `O=C(Nc1cccc(OCc2cccnc2)c1)N1CCCC1`, the melting point lay within 138 to 140 °C. Turning to `CC(C)(C)NC(=O)[C@@H]1CN(C(=O)OC(C)(C)C)CCN1C(=O)OCc1ccccc1`, the melting point was 134 to 135 °C. On to `Cc1cc(C)cc(C(=O)c2c(C(C)C)c(=O)[nH]c(=O)n2Cc2ccc(N)cc2)c1`, for which the melting point was in the range of 173 to 175 °C. With `CCCNc1nc(C)nc2c1nnn2-c1ccc(C(C)C)cc1Br`, the melting point fell in the range of 156 to 157 °C. As to `O=c1n(CO)c2cccnc2n1-c1ccc2c(c1)OCO2`, the melting point amounted to 268 °C.
